Source: patent publication US12503717B2, “Systems and methods for modeling disease and assessing adverse side effects of therapeutics therefor” (NOVOHEART INTERNATIONAL LIMITED, priority 2016, dated 2025)
Marks after values point to notes of the source that are not given here.

Experiments:
[1] = tested on: hvCAS (human ventricular cardiac anisotropic sheet of HES2 hESC-derived ventricular cardiomyocytes); assay type: cell-based
Experimental: hvCAS preparations were loaded with di-8-ANEPPS (10 μM; D-3167; Molecular Probes)/[…] (0.04%; P-3000MP; Life Technologies) for 1 hour at 37° C. in DMEM-F12, followed by incubation at room temperature (RT) for 15 minutes in Blebbistatin (50 μM, B0560; Sigma-Aldrich) in Tyrode's solution. Tyrode's solution consists of 140 mM NaCl, 5 mM KCl, 1 mM MgCl2, 1 mM CaCl2, 10 mM D-glucose, and 10 mM HEPES at pH 7.4 to minimize potential interference of optical mapping signals by motion artifacts. The dye-loaded hvCAS preparations were bathed in Tyrode's solution which was maintained at 35-37° C. using a culture dish incubator (Warners Instruments). High-resolution optical mapping of AP and conduction properties was performed using a MiCam Ultima (SciMedia, CA, USA) with a 1× objective and a 1× condensing lens to yield a 10 mm by 10 mm field of view. Fluorescence imaging was performed using a halogen light filtered by a 515±35 nm band-pass excitation filter and a 590 nm high-pass emission filter. Data were collected at a sampling rate of 200 Hz and analyzed using BVAna software (SciMedia). A programmable stimulator (Master8; AMPI, Israel) was enrolled to deliver pacing stimuli (10V, 10-ms pulse duration) via a unipolar point-stimulation electrode (Harvard Apparatus, MA, USA) placed perpendicular to the hvCAS surface.
A point stimulation was applied at the center of an […] preparation following the schematic illustration (FIG. 2E) and steady state pacing (10 ms, 10 V) was first applied from 0.5 Hz through to 3 Hz (i.e., 30 to 180 bpm) with 0.5 Hz increments, unless there was a loss of 1:1 capture using Master-8 (AMPI, Israel). A standard (S1-S2) programmed electrical stimulation (PES) protocol was then introduced to further evaluate arrhythmogenicity, similar to what has been previously described^[15]. A train of eight S1 stimuli was delivered at 1.5 Hz followed by a premature extra stimulus (S2) with S1-S2 interval initiated at 550 ms and consecutively shortened in steps of 50 ms until capture failed.
A set of selection criteria was strictly followed before an hvCAS was employed for subsequent drug testing procedures to ensure fair comparison. In particular, the selection criteria included (1) observation of a consistent propagation signal across the whole field of view, (2) a maximum capture frequency of at least 1.5 Hz and (3) no re-entry at baseline. Drugs were then added at three cumulative doses to cover the therapeutic range and HERG IC50 was determined using a conventional technique known in the art.^[33] All drugs were purchased from Sigma-aldrich (MO, USA). […] Steady-state pacing and PES were repeated, as described above, for each dose unless re-entry occurred before the highest dose was applied. Action potential parameters and conduction properties were subsequently analyzed using Clampfit, with APD90 defined as the time from the peak to 90% repolarization. Data are individually presented as mean±SD and statistically compared using Student's t-test with p<0.05 considered statistically significant.

[2] = cited from earlier work

Row | Chirality of Re-entry: Anticlock-wise ([1]; human, pH 7.4) | Chirality of Re-entry: Clock-wise ([1]; human, pH 7.4) | Chirality of Re-entry: Figure-of-eight ([1]; human, pH 7.4) | Chirality of Re-entry: Multi-origin ([1]; human, pH 7.4) | Frequency of re-entries (Mean ± SD) ([1]; human, pH 7.4) | No. of Re-entry, 1st dose ([1]; human, pH 7.4) | No. of Re-entry, 2nd dose ([1]; human, pH 7.4) | No. of Re-entry, 3rd dose ([1]; human, pH 7.4) | effect on AP at relatively low doses [1] | fold increase in risk compared to the vehicle control (DMSO) ([1]; human, 300 nM, pH 7.4) | reentrant events at relatively low doses ([1]; human, pH 7.4) | Structure (SMILES) | arrhythmic risk compared to the respective vehicle control (FIG. 3H) [1] | fold increase in incidence rate or arrhythmic risk normalized to corresponding vehicle control ([1]; human, pH 7.4) | risk of arrhythmia or sudden death during hospitalization ([2]; nested case-control study) | serum concentration associated with clinical TdP ([2]; serum) | clinical QT prolongation / TdP liability ([2]; human, in vivo)
1 |  |  |  |  |  |  |  |  |  |  |  | CC(=O)Oc1ccccc1C(=O)O [ASP, aspirin] | lower risk |  |  |  | 
2 | 3 | 1 | 1 | 0 | 1.92 ± 0.37 | 4^[a] | 1^[a] | 0 |  |  |  | O=C(NCC1CCCCN1)c1cc(OCC(F)(F)F)ccc1OCC(F)(F)F (stereo not shown) [FLE, flecainide] | elevated risk |  |  |  | 
3 | 3 | 0 | 0 | 0 | 1.53 ± 0.42 | 1^[a] | 2 | 0 |  |  |  | CCN(CC)CCNC(=O)c1ccc(N)cc1 [PROC, procainamide] | elevated risk | 2.3 fold |  |  | 
4 | 3 | 1 | 0 | 0 | 1.04 ± 0.31 | 0 | 0 | 4 | no apparent effects on AP | 1.2 fold | 0 of 16 | CC(C)(C)c1ccc(C(O)CCCN2CCC(C(O)(c3ccccc3)c3ccccc3)CC2)cc1 (stereo not shown) [TERF, terfenadine] | elevated risk |  |  | 120 nM | 
5 | 0 | 1 | 1 | 0 | 1.34 ± 0.52 | 0 | 1^[a] | 1 |  |  |  | Cc1cccc(C)c1NC(=O)C(C)N (stereo not shown) [TOC, tocainide] | lower risk | 0.7 fold |  |  | 
6 |  |  |  |  |  |  |  |  |  |  |  | COc1ccccc1OCC(O)CN1CCN(CC(=O)Nc2c(C)cccc2C)CC1 (stereo not shown) [ranolazine] |  |  |  |  | reasonably safe from causing TdP

Row | Structure (SMILES) | Chirality of Re-entry: Anticlock-wise ([1]; human, pH 7.4) | Chirality of Re-entry: Clock-wise ([1]; human, pH 7.4) | Chirality of Re-entry: Figure-of-eight ([1]; human, pH 7.4) | Chirality of Re-entry: Multi-origin ([1]; human, pH 7.4) | Frequency of re-entries (Mean ± SD) ([1]; human, pH 7.4) | No. of Re-entry, 1st dose ([1]; human, pH 7.4) | No. of Re-entry, 2nd dose ([1]; human, pH 7.4) | No. of Re-entry, 3rd dose ([1]; human, pH 7.4) | effect on AP at relatively low doses [1] | fold increase in risk compared to the vehicle control (DMSO) ([1]; human, 300 nM, pH 7.4) | reentrant events at relatively low doses ([1]; human, pH 7.4) | arrhythmic risk compared to the respective vehicle control (FIG. 3H) [1] | fold increase in incidence rate or arrhythmic risk normalized to corresponding vehicle control ([1]; human, pH 7.4) | risk of arrhythmia or sudden death during hospitalization ([2]; nested case-control study) | serum concentration associated with clinical TdP ([2]; serum) | clinical QT prolongation / TdP liability ([2]; human, in vivo)
7 | COc1cc(N)c(Cl)cc1C(=O)NC1CCN(CCCOc2ccc(F)cc2)CC1OC (stereo not shown) [CISA, cisapride] | 5 | 3 | 0 | 1 | 1.18 ± 0.40 | 2^[a] | 4^[a] | 3 |  |  |  | elevated risk | 2.7 fold | doubling or tripling |  | 
